PMC13052863 (PLOS One, 2026)
Where two headings read alike, the source gives them in different places.

Experiments:
[1] = tested on: Ae. aegypti eIF4A mutant H161L; details: for reduction in thermal shift with the mutant compared to the wt protein: Ae. aegypti eIF4A, (GA)5 10mer; for ∆Tm: S3 Table, Ae. aegypti mut.
[2] = tested on: A. suspensa eIF4A mutant Y160L; details: S3 Table, A. suspensa mut.
D. melanogaster eIF4A wt = target: T1, D. melanogaster eIF4A wt (Drosophila melanogaster, UniProt Q02748); assay type: binding; details: S3 Table
T1 construct: made in house; host or cells: E. coli BL21 (DE3)
T1 sequence (Q02748 whole entry): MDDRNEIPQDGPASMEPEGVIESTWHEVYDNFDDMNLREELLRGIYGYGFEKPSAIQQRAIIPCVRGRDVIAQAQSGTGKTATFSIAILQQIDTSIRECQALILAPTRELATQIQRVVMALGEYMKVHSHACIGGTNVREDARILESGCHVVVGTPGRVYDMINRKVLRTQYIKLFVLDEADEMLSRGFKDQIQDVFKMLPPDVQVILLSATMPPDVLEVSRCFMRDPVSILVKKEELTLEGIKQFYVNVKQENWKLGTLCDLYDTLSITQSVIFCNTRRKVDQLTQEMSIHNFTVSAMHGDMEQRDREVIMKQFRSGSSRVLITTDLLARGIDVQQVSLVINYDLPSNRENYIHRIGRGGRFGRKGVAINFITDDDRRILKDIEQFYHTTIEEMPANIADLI

[3] = target: T2, D. melanogaster eIF4A mutant Y160L (Drosophila melanogaster, UniProt Q02748, Y160L); assay type: binding; details: S3 Table, D. melanogaster mut.
T2 construct: made in house; host or cells: E. coli BL21 (DE3)
T2 sequence (Q02748 whole entry Y160L): as the sequence (Q02748 whole entry) above, with Y160L counted along it

S2 cells = test: cells; details: Drosophila melanogaster, read-out: IC50 (best-fit value, 4PL dose-viability curve)
in vitro [4] = details: Aedes aegypti, CC50, Aag2 cells, WST-1
RVFV Clone 13 = assay type: cell-based, Rift Valley fever virus; details: A549 cells pretreated with 50 nM silvestrol, MOI 0.1, 18 h post-infection, relative to DMSO controls
in vitro [5] = details: Drosophila melanogaster, CC50, S2 cells, WST-1
Aag2 cells = test: cells; details: Aedes aegypti, read-out: IC50 (best-fit value, 4PL dose-viability curve)
[6] = tested on: eIF4A-dependent firefly luciferase translation in S2 cells; assay type: cell-based, D. melanogaster; details: t = 24 h
[7] = tested on: eIF4A-dependent firefly luciferase translation in Aag2 cells; assay type: cell-based, Ae. aegypti; details: t = 48 h
RVFV MP-12 = assay type: cell-based, Rift Valley fever virus; details: A549 cells pretreated with 50 nM silvestrol, MOI 0.1, 18 h post-infection, relative to DMSO controls
A549 cells = details: 50–100 nM, WST-1
[8] = silvestrol in the sub-CC50 range, vs DMSO and (AC)15 control

| Compound | reduction in thermal shift with the mutant compared to the wt protein [1] | ∆Tm ([1]; RNA oligo (AC)5) [°C] | ∆Tm ([1]; RNA oligo (AG)5) [°C] | ∆Tm ([1]; RNA oligo (GA)5) [°C] | ∆Tm ([1]; RNA oligo (UA)5) [°C] | ∆Tm ([1]; RNA oligo (UC)5) [°C] | ∆Tm ([1]; RNA oligo (UG)5) [°C] | ∆Tm ([2]; RNA oligo (AC)5) [°C] | ∆Tm ([2]; RNA oligo (GA)5) [°C] | ∆Tm ([2]; RNA oligo (UA)5) [°C] | ∆Tm ([2]; RNA oligo (UC)5) [°C] | ∆Tm ([2]; RNA oligo (UG)5) [°C] | ∆Tm (D. melanogaster eIF4A wt; RNA oligo (AC)5) [°C] | ∆Tm (D. melanogaster eIF4A wt; RNA oligo (AG)5) [°C] | ∆Tm (D. melanogaster eIF4A wt; RNA oligo (GA)5) [°C] | ∆Tm (D. melanogaster eIF4A wt; RNA oligo (UA)5) [°C] | ∆Tm (D. melanogaster eIF4A wt; RNA oligo (UC)5) [°C] | ∆Tm (D. melanogaster eIF4A wt; RNA oligo (UG)5) [°C] | ∆Tm ([3]; RNA oligo (AC)5) [°C] | ∆Tm ([3]; RNA oligo (AG)5) [°C] | further results |
| --- | --- | --- | --- | --- | --- | --- | --- | --- | --- | --- | --- | --- | --- | --- | --- | --- | --- | --- | --- | --- | --- |
| CONC(=O)C1C(O)C2(O)c3c(OC)cc(OC)cc3OC2(c2ccc(OC)cc2)C1c1ccccc1 (stereo not drawn) [CR-31-B (-)] | ~3 °C | -4.82 | 7.50 | 3.74 | -4.65 | -5.44 | -0.09 | -4.03 | 2.81 | -4.53 | -4.59 | -2.82 | -0.43 | 6.55 | 5.81 | -0.71 | -1.11 | 5.59 | -4.66 | 0.74 | ∆Tm ([3]; RNA oligo (GA)5): 1.88 °C; ∆Tm ([3]; RNA oligo (UA)5): -4.43 °C; ∆Tm ([3]; RNA oligo (UC)5): -4.09 °C; ∆Tm ([3]; RNA oligo (UG)5): -2.27 °C |
| COC(=O)[C@H]1[C@@H](O)[C@@]2(O)c3c(OC)cc(O[C@@H]4O[C@@H]([C@H](O)CO)CO[C@H]4OC)cc3O[C@@]2(c2ccc(OC)cc2)[C@@H]1c1ccccc1 [silvestrol] | about 5 °C | -5.7 | 7.84 | 3.91 | -5.16 | -5.73 | -0.68 | -4.10 | 3.53 | -4.50 | -4.15 | -3.02 | 1.02 | 9.55 | 9.16 | -0.09 | -0.09 | 7.31 | -1.65 | 1.76 | IC50 (S2 cells; 24 h): 6.35 nM; IC50 (S2 cells; 48 h): 6.15 nM; CC50 (in vitro [4]; 24 h incubation): 55.6 nM; CC50 (in vitro [4]; 48 h incubation): 49 nM; RVFV L-segment RNA levels (RVFV Clone 13): strong reduction; CC50 (in vitro [5]; 24 h incubation): 11.5 nM; CC50 (in vitro [5]; 48 h incubation): 7.3 nM; IC50 (Aag2 cells; 24 h): 36.7 nM; IC50 (Aag2 cells; 48 h): 45.3 nM; translation efficiency with the (AC)15 control ([6]; silvestrol concentrations in the CC50 range): reduction of translation efficiency; firefly luciferase activity / translation efficiency with the (AG)15 plasmid [6, 8]: strong reduction; translation efficiency with the (AC)15 control [7]: already visible at the half CC50 concentration; firefly luciferase activity / translation efficiency with the (AG)15 plasmid [7, 8]: strong reduction; RVFV L-segment RNA levels (RVFV MP-12): strong reduction; ∆Tm ([3]; RNA oligo (GA)5): 2.90 °C; ∆Tm ([3]; RNA oligo (UC)5): -3.87 °C; ∆Tm ([3]; RNA oligo (UG)5): -2.05 °C; cytotoxicity (A549 cells): No cytotoxicity |
